Values of other authors, collected in patent US6376509B2, “Melanocortin receptor agonists” (Merck & Co., Inc., priority 2000, dated 2002).

How the values were obtained:
[1] = system: erectile dysfunction; conditions: for duration of effect / onset of action: after an oral dose; for share of patients with adequate response: oral, men with erectile dysfunction
[2] = system: psychogenic erectile dysfunction

Compound | duration of effect [1] | onset of action [1] | share of patients with adequate response [1] | absorption into the systemic circulation ([2]; in vivo, po) | response rate ([2]; injected intramuscularly or subcutaneously, males with psychogenic erectile dysfunction) | duration of action ([2]; subcutaneous injection) | time to onset of erection ([2]; subcutaneous injection)
Cc1ccc(N(CC2=NCCN2)c2cccc(O)c2)cc1 [phentolamine] | 2 h | 5 to 30 min | 35-40% |  |  |  | 
CCCc1nn(C)c2c(=O)[nH]c(-c3cc(S(=O)(=O)N4CCN(C)CC4)ccc3OCC)nc12 [sildenafil] | about 4 hours | 30 to 60 min | about 70% |  |  |  | 
Ac-Nle-c[Asp-His-DPhe-Arg-Trp-Lys]-NH2 [MT-II] |  |  |  | not absorbed into the systemic circulation | 75% | approximately 2.5 hours | 10 to 20 min
